The numbers were not newly measured in patent publication US4933445A, “Heteroazabenzobicyclic carboxamide 5-HT3 antagonists” (Rorer Pharmaceutical Corporation, priority 1988, dated 1990), which cites them from elsewhere.

In this data set the test system is 5-HT3 receptor. The note with it: becomes more prominent at higher doses.

Consider `CCN(CC)CCNC(=O)c1cc(Cl)c(N)cc1OC` [Metoclopramide], for which the 5-HT3-antagonist activity entry is listed as “weak”.
